Measurements taken from patent US7141586B2, “Nicotinamide derivatives useful as PDE4 inhibitors” (Pfizer Inc., priority 2003, dated 2006).

Legend:
[1] = system: TNFα release from human peripheral blood mononuclear cells; assay: Inhibition of LPS-stimulated TNFα release from human peripheral blood mononuclear cells (TNFα screen); format: cell-based; conditions: human PBMC stimulated with lipopolysaccharide, 18 hours incubation, TNFα in supernatant by ELISA
Description: Venous blood is collected from healthy volunteers and the mononuclear cells purified by centrifugation through Histopaque (Ficoll) cushions. TNFα production from these cells is stimulated by addition of lipopolysaccharide. After 18 hours incubation in the presence of LPS, the cell supernatant is removed and the concentration of TNFα in the supernatant determined by ELISA. Addition of PDE4 inhibitors reduces the amount of TNFα produced. An IC50 is determined which is equal to the concentration of compound that gives 50% inhibition of TNFα production as compared to the LPS stimulated control wells.

Q: For “Syn-5-fluoro-N-[4-(4-hydroxy-2-methoxy-benzoylamino)-cyclohexyl]-2-(3-methylsulfanyl-phenoxy)-nicotinamide [Example 22]”, which IC50 [1] is on record?
A: 0.07 nM

Q: Which IC50 [1] does the source give for “Syn-5-fluoro-N-{4-[(1H-imidazole-5-carbonyl)-amino]-cyclohexyl}-2-(3-methylsulfanyl-phenoxy)-nicotinamide [Example 18]” here?
A: 0.6 nM

Q: For “Syn-5-fluoro-2-(3-methylsulfanyl-phenoxy)-N-{4-[(2,3-dimethyl-1H-pyrazole-5-carbonyl)-amino]-cyclohexyl}-nicotinamide [Example 3]”, which IC50 [1] is on record?
A: 0.37 nM

Q: Which melting point does the source give for `CSc1cccc(Oc2ncc(F)cc2C(=O)N[C@H]2CCCC[C@@H]2CO)c1` (relative stereo) [Example 56, 5-Fluoro-N-[trans-2-hydroxymethyl-cyclohexyl]-2-(3-methylsulfanyl-phenoxy)-nicotinamide] here?
A: 128 to 129 °C

Q: Which IC50 [1] does the source give for `CSc1cccc(Oc2ncc(F)cc2C(=O)N[C@H]2CC[C@@H](NC(=O)c3cc(C)ccc3O)CC2)c1` [Example 1, Syn-5-Fluoro N-[4-(2-hydroxy-5-methyl-benzoylamino)-cyclohexyl]-2-(3-methylsulfanyl-phenoxy)-nicotinamide] here?
A: 0.4 nM

Q: For `CSc1cccc(Oc2ncc(F)cc2C(=O)N[C@H]2CCCC[C@H]2O)c1` (relative stereo) [Example 31, 5-Fluoro-N-[cis-2-hydroxy-cyclohexyl]-2-(3-methylsulfanyl-phenoxy)-nicotinamide], which melting point is on record?
A: 99 to 101 °C

Q: For “Syn-5-fluoro-N-{4-[(4-methyl-1H-imidazole-2-carbonyl)-amino]-cyclohexyl}-2-(3-methylsulfanyl-phenoxy)-nicotinamide [Example 4]”, which IC50 [1] is on record?
A: 0.15 nM

Q: With “Syn-5-fluoro-N-[4-(2-hydroxy-4-methyl-benzoylamino)-cyclohexyl]-2-(3-methylsulfanyl-phenoxy)-nicotinamide [Example 10]” as the compound, how does the IC50 [1] read?
A: 0.05 nM

Q: For “Syn-5-fluoro-N-[4-(2-hydroxy-benzoylamino)-cyclohexyl]-2-(3-methylsulfanyl-phenoxy)-nicotinamide [Example 11]”, which IC50 [1] is on record?
A: 0.05 nM

Q: With “Syn-5-fluoro-N-[4-(5-chloro-2-hydroxy-benzoylamino)-cyclohexyl]-2-(3-methylsulfanyl-phenoxy)-nicotinamide [Example 5]” as the compound, how does the IC50 [1] read?
A: 0.15 nM

Q: With `CSc1cccc(Oc2ncc(F)cc2C(=O)N[C@H]2CC[C@@H](CO)CC2)c1` [Example 60, 5-Fluoro-N-(cis-4-hydroxymethyl-cyclohexyl)-2-(3-methylsulfanyl-phenoxy)-nicotinamide] as the compound, how does the melting point read?
A: 123 to 126 °C
